Laboratory results taken from publication PMC4836696 (PLoS ONE, 2016).
“Also recorded” adds a separate entry of the source.

What was measured:
[1] = system: subjects with T2D taking liraglutide; assay: Clinical study Part B: pharmacodynamics (weight, glucose, HbA1c); format: in vivo, human; conditions: Part B: liraglutide alone titrated to 1.8 mg/day, mean ± SD
Description: In all three Parts, to reduce the risk of gastrointestinal adverse events subjects started by taking 15 g of GSK457 daily, in 2 divided doses, and were up−titrated to 30g daily (Day 4) and then to a maximum dose of 40 g daily at Day 7. Subjects unable to tolerate doses of 30 g or 40 g were permitted to reduce their dose to tolerated levels, with a minimum tolerated dose of 15 g required to remain in the study. A unit dose of 5 g of GSK457 consisted of three capsules of oleic acid and a separate sachet of powder for each of the three powder compounds. […]
In Parts B and C, there were additional clinic visits on Days 7, 14, and 28 for safety evaluations, potential modification of dose (Days 7 and 14), and dispensing of study medications. Subjects monitored their capillary blood glucose levels twice a day using a wireless-enabled glucometer and daily weights were monitored using a wireless enabled weighing instrument (see S3 Materials and Methods for more information). […]
Venous blood samples were collected for PD and PK analysis in K^+ EDTA tubes and rapidly placed on ice until centrifuged at 4°C for 10 minutes. Plasma was stored at -70°C until analyzed. Samples for clinical chemistry and hematology were measured by the local certified laboratory. Plasma samples were analyzed for glucose, insulin and leptin by BioAgilytix Labs (Durham, NC, USA). […]

[2] = system: subjects with T2D taking liraglutide; assay: Clinical study Part B: safety and tolerability; format: in vivo, human
Description: A unit dose of 5 g of GSK457 consisted of three capsules of oleic acid and a separate sachet of powder for each of the three powder compounds. The powders were mixed by the subject into 12 oz of flavored (Mio™ pomegranate/berry flavoring) water in a shaker bottle and consumed just prior to breakfast and dinner. The capsules could be taken with this drink or separately with water. The matching placebo consisted of starch and microcrystalline cellulose in identical sachets and capsules.

[3] = Clinical study Part B: plasma liraglutide pharmacokinetics
[4] = system: subjects with T2D taking metformin; assay: Clinical study Part C: pharmacodynamics (weight, glucose, HbA1c); format: in vivo, human; conditions: Part C: usual metformin alone, mean ± SE
Description: In all three Parts, to reduce the risk of gastrointestinal adverse events subjects started by taking 15 g of GSK457 daily, in 2 divided doses, and were up-titrated to 30g daily (Day 4) and then to a maximum dose of 40 g daily at Day 7. Subjects unable to tolerate doses of 30 g or 40 g were permitted to reduce their dose to tolerated levels, with a minimum tolerated dose of 15 g required to remain in the study. A unit dose of 5 g of GSK457 consisted of three capsules of oleic acid and a separate sachet of powder for each of the three powder compounds. […] Subjects monitored their capillary blood glucose levels twice a day using a wireless-enabled glucometer and daily weights were monitored using a wireless enabled weighing instrument (see S3 Materials and Methods for more information). […] Plasma was stored at -70°C until analyzed. Samples for clinical chemistry and hematology were measured by the local certified laboratory. Plasma samples were analyzed for glucose, insulin and leptin by BioAgilytix Labs (Durham, NC, USA). Glucose was measured using a Glucose 2300 STAT Plus Glucose Analyzer with the glucose/lactate standard, catalog number 2747 (Yellow Springs Instrument Co, OH, USA). […] An estimation approach was used where point estimates for treatment differences and corresponding confidence intervals were determined. […]

[5] = Clinical study Part C: plasma metformin pharmacokinetics; format: in vivo, human; conditions: Part C: metformin taken 1 hour before GSK457; comparative plot, no statistics
Description: All samples were shipped frozen on dry ice and stored at approximately -20 °C until analysed. […] The eluate was then further diluted with 1.00 mL of 2:98 formic acid / acetonitrile vol/vol, prior to being analyzed by HPLC with MS/MS detection.

patients = conditions: cited from earlier work
[6] = protocol risk table; cited from earlier work
[7] = Clinical study Part A: plasma metformin pharmacokinetics; conditions: for metformin Cmax / metformin AUC(0−10): geometric mean (CV%); for metformin Tmax: median (range)
DIO C57BL/6NTac mice = assay: Chronic 28-day weight loss study in DIO mice; format: in vivo, mouse
[8] = subjects later randomized to GSK457
[9] = subjects later randomized to placebo
[10] = Part B, GSK457 group, Day 42, median (range), n=11
[11] = Part B, with GSK457, data from 1 outlier excluded
[12] = overdose, ref GLUCOPHAGE (Metformin) Package Insert
[13] = Part A healthy subjects, co-administration with GSK457
[14] = Part A, single 500 mg IR metformin, GSK457 group, Day 1 (metformin alone), n=11
[15] = Part A, single 500 mg IR metformin, GSK457 group, Day 42 (with GSK457), n=10
[16] = Part A, single 500 mg IR metformin, Placebo group, Day 1, n=4
[17] = Part A, single 500 mg IR metformin, Placebo group, Day 42, n=4

## CCCCCCCCCCCCCCCC(=O)N[C@@H](CCC(=O)NCCCC[C@H](NC(=O)[C@H](C)NC(=O)[C@H](C)NC(=O)[C@H](CCC(N)=O)NC(=O)CNC(=O)[C@H](CCC(=O)O)NC(=O)[C@H](CC(C)C)NC(=O)[C@H](Cc1ccc(O)cc1)NC(=O)[C@H](CO)NC(=O)[C@H](CO)NC(=O)[C@@H](NC(=O)[C@H](CC(=O)O)NC(=O)[C@H](CO)NC(=O)[C@@H](NC(=O)[C@H](Cc1ccccc1)NC(=O)[C@@H](NC(=O)CNC(=O)[C@H](CCC(=O)O)NC(=O)[C@H](C)NC(=O)[C@@H](N)Cc1cnc[nH]1)[C@@H](C)O)[C@@H](C)O)C(C)C)C(=O)N[C@@H](CCC(=O)O)C(=O)N[C@@H](Cc1ccccc1)C(=O)N[C@H](C(=O)N[C@@H](C)C(=O)N[C@@H](Cc1c[nH]c2ccccc12)C(=O)N[C@@H](CC(C)C)C(=O)N[C@H](C(=O)N[C@@H](CCCNC(=N)N)C(=O)NCC(=O)N[C@@H](CCCNC(=N)N)C(=O)NCC(=O)O)C(C)C)[C@@H](C)CC)C(=O)O [liraglutide]
[1]; [8]
  change in mean body weight during the 12-week liraglutide Stabilization phase: -1.29 kg
[1]; [9]
  change in mean body weight during the 12-week liraglutide Stabilization phase: -2.55 kg
[2]; Part B: liraglutide alone, 12 weeks, titrated to 1.8 mg/day
  most common drug-related adverse events during the Stabilization period: nausea, diarrhea, decreased appetite, and headache
[2]; Part B: while subjects were on liraglutide, no symptoms or signs of pancreatitis, no clear differentiation GSK457 vs placebo
  circulating lipase/amylase concentrations: Asymptomatic elevations
[3]; Part B T2D patients, all data
  effect of co-administration with GSK457 on liraglutide plasma exposures: did not affect liraglutide plasma exposures; also recorded: no effect
[3]; Part B, GSK457 group, Day 42 (with GSK457), geometric mean (CV%), n=11
  liraglutide AUC(0−t): 1266 (79.4) ng.h/mL
[3]; [10]
  liraglutide Tlast: 24.02 (23.8−24.3) h
  liraglutide Tmax: 9.98 (0.8−23.8) h
[3]; Part B, GSK457 group, Day -1, median (range), n=12
  liraglutide Tlast: 23.88 (23.0−25.9) h
[3]; Part B, Placebo group, Day 42, median (range), n=5
  liraglutide Tlast: 23.80 (23.8−24.1) h
[3]; [11]
  increase of liraglutide AUC(0−t): 28%
  increase of liraglutide Cmax: 22%

## CN(C)C(=N)N=C(N)N [metformin]
[4]; [8]
  change in mean body weight during the 4-week metformin Stabilization phase: -1.62 kg
[4]; [9]
  change in mean body weight during the 4-week metformin Stabilization phase: -1.17 kg
[5]
  effect on metformin AUC(0−10 h): slight decrease
  effect on metformin Cmax: no apparent effect
patients; human, in vivo
  patients with decrease to subnormal serum vitamin B12 levels: approximately 7%
patients; [12]
  hypoglycemia in metformin overdose cases: approximately 10 % of cases
  lactic acidosis in metformin overdose cases: approximately 32%
[6]
  fraction of a dose that appears in the feces: 20-30%
[7]; Part A healthy subjects, by GSK457
  reduction of metformin systemic exposure: ~ 30%
[7]; [13]
  decrease of metformin AUC(0−10 h): 32%
  decrease of metformin Cmax: 34%
[7]; Part A healthy subjects, single 500 mg IR metformin before breakfast, Placebo group, Day 1, plasma, HPLC-MS/MS, n=4
  metformin Cmax: 682 (19.0) ng/mL
[7]; [14]
  metformin AUC(0−10): 3403 (26.4) ng.h/mL
  metformin Tmax: 2.00 (1.00−4.00) h
[7]; Part A, single 500 mg IR metformin, GSK457 group, Day 1 (metformin alone, GSK457 started at dinner), n=11
  metformin Cmax: 576 (24.4) ng/mL
[7]; Part A, single 500 mg IR metformin, GSK457 group, Day 42 (taken together with GSK457 after 6 weeks), n=10
  metformin Cmax: 374 (31.2) ng/mL
[7]; [15]
  metformin AUC(0−10): 2232 (38.6) ng.h/mL
  metformin Tmax: 2.00 (2.00−5.50) h
[7]; [16]
  metformin AUC(0−10): 4347 (19.1) ng.h/mL
  metformin Tmax: 3.01 (2.00−4.03) h
[7]; [17]
  metformin AUC(0−10): 5082 (21.1) ng.h/mL
  metformin Cmax: 860 (18.8) ng/mL
  metformin Tmax: 4.00 (2.00−4.03) h

## CCCCCCCC/C=C\CCCCCCCC(=O)O [oleic acid]
DIO C57BL/6NTac mice; agents dosed individually
  effect on endocrine hormones: little effect
DIO C57BL/6NTac mice; single GRAS agent in chow
  serum chemistry, effect of single agents: only a small beneficial effect
DIO C57BL/6NTac mice; single agent in chow, p < 0.05
  serum glucose vs. DIO vehicle: lowered glucose
